Common to all, as to assay type: in vivo
Assay [1] concerns Spodoptera eridania, 3rd instar larvae, southern armyworm (SAW). As to the kind of experiment: Southern armyworm (SAW) leaf-dip test. The following applies: lima bean leaf dip, after 5 days, kill rating 0-9. The protocol: (§1) Test solutions are prepared by dissolving the test compound in a 35% acetone in water mixture to give a concentration of 10000 ppm. Subsequent dilutions are made with water as needed.
Spodoptera eridania, 3rd instar larvae, southern armyworm (SAW)
A Sieva lima bean leaf expanded to 7-8 cm in length is dipped in the test solution with agitation for 3 seconds and allowed to dry in a hood. The leaf is then placed in a 100×10 mm petri dish containing a damp filter paper on the bottom and ten 3rd instar caterpillars. After 5 days, observations are made of mortality, reduced feeding, or any interference with normal molting.

Assay [2] concerns Tetranychus urticae (OP-resistant strain), 2-spotted spider mite (TSM). As to the kind of experiment: 2-spotted spider mite (TSM) plant dip test. Also on record: key: 0 = no effect; 1 = 10-25% kill; 2 = 26-35% kill; 3 = 36-45% kill; 4 = 46-55% kill; 5 = 56-65% kill; 6 = 66-75% kill; 7 = 76-85% kill; 8 = 86-99% kill; 9 = 100% kill. The following applies: dip of infested lima bean plants, 2 days, kill rating 0-9. The protocol: as §1
Tetranychus urticae (OP-resistant strain), 2-spotted spider mite (TSM)
Sieva lima bean plants with primary leaves expanded to 7-8 cm are selected and cut back to one plant per pot. A small piece is cut from an infested leaf taken from the main colony and placed on each leaf of the test plants. This is done about 2 hours before treatment to allow the mites to move over to the test plant to lay eggs. By the size of the cut, infested leaf is varied to obtain about 100 mites per leaf. At the time of test treatment, the piece of leaf used to transfer the mites is removed and discarded. The newly-infested plants are dipped in the test solution for 3 seconds with agitation and set in the hood to dry. After 2 days, one leaf is removed and mortality counts are made.

The test system of assay [3] is Heliothis virenscens, 3rd instar tobacco budworm (TBW). Kind of assay: Tobacco budworm (TBW) cotton cotyledon dip test. Further details: key: 0 = no effect; 1 = 10-25% kill; 2 = 26-35% kill; 3 = 36-45% kill; 4 = 46-55% kill; 5 = 56-65% kill; 6 = 66-75% kill; 7 = 76-85% kill; 8 = 86-99% kill; 9 = 100% kill. The following applies: 3 days, kill rating 0-9. Here is the method:
as §1
Heliothis virenscens, 3rd instar tobacco budworm (TBW)
Cotton cotyledons are dipped in the test solution and allowed to dry in a hood. When dry, each is cut into quarters and ten sections are placed individually in 30 ml plastic medicine cups containing a 5 to 7 mm long piece of damp dental wick. One 3rd instar caterpillar is added to each cup and a cardboard lid placed on the cup. Treatments are maintained for 3 days before mortality counts and estimates of reduction in feeding damage are made.

Assay [4] deals with Aphis fabae, mixed instar, bean aphid (BA). Kind of assay: Bean aphid (BA) spray test on nasturtium. Also on record: key: 0 = no effect; 1 = 10-25% kill; 2 = 26-35% kill; 3 = 36-45% kill; 4 = 46-55% kill; 5 = 56-65% kill; 6 = 66-75% kill; 7 = 76-85% kill; 8 = 86-99% kill; 9 = 100% kill. The following applies: spray on infested nasturtium plants, 2 days, kill rating 0-9. Here is the method:
Test solutions are prepared by dissolving the test compound in a 35% acetone in water mixture to give a concentration of 10000 ppm. Subsequent dilutions are made with water as needed. Aphis fabae, mixed instar, bean aphid (BA) Pots containing single nasturtium plants (Tropaeolum sp.) about 5 cm tall are infested with about 100-200 aphids one day before the test. Each pot is sprayed with the test solution for 2 revolutions of a 4 rounds per minute (rpm) turntable in a hood. The spray is directed to give complete coverage of the plants and aphids. The sprayed pots are set on their sides on white trays and held for 2 days, following which mortality estimates are made.

For assay [5], the system named is Diabrotica virgifera virgifera Leconte, 3rd instar western corn rootworm (WCR). Kind of assay: Western corn rootworm (WCR) soil test. The following applies: 1.25 mg active ingredient per jar in soil (approx. 50 kg/ha), 5 days, kill rating 0-9. The protocol: Diabrotica virgifera virgifera Leconte, 3rd instar western corn rootworm (WCR) One ccm of fine talc is placed in a 30 ml wide-mouth screw-top glass jar. One ml of the appropriate acetone test solution is pipetted onto the talc so as to provide 1.25 mg of active ingredient per jar. The jars are set under a gentle air flow until the acetone is evaporated. The dried talc is loosened, 1 ccm of millet seed is added to serve as food for the insects and 25 ml of moist soil is added to each jar. The jar is capped and the contents thoroughly mixed mechanically. Following this, ten 3rd instar rootworms are added to each jar and the jars are loosely capped to allow air exchange for the larvae. The treatments are held for 5 days when mortality counts are made. Missing larvae are presumed dead, since they decompose rapidly and cannot be found. The concentrations of active ingredient used in this test correspond approximately to 50 kg/ha.

As for `COCCC(/C(F)=C(\F)Cc1ccc(F)c(Oc2ccccc2)c1)c1ccc(Cl)cc1` (centres unmarked) [Compound 4, 4-[(2E)-4-(4-chlorophenyl)-2,3-difluoro-6-methoxy-2-hexenyl]-1-fluoro-2-phenoxybenzene], in assay [1], the “SAW (100 ppm) rating” value is on record as 9 (9 = 100% kill). The “TSM (100 ppm) rating” value in assay [2] is recorded as 0. The “TBW (100 ppm) rating” value in assay [3] is recorded as 9 (9 = 100% kill). Besides, the “BA (100 ppm) rating” value in assay [4] is 0. Besides, the “WCR (50 ppm) rating” value in assay [5] was 9 (9 = 100% kill).
As to `COCCC(/C(F)=C(\F)Cc1cccc(Oc2ccccc2)c1)c1ccc(Cl)cc1` (centres unmarked) [Compound 1, 1-[(2E)-4-(4-chlorophenyl)-2,3-difluoro-6-methoxy-2-hexenyl]-3-phenoxybenzene], in assay [1], the “SAW (100 ppm) rating” value was 9 (9 = 100% kill). The “TSM (100 ppm) rating” value in assay [2] was determined as 0. The “TBW (100 ppm) rating” value in assay [3] is given as 0. For the same molecule, the “BA (100 ppm) rating” value in assay [4] is reported as 2 (2 = 26-35% kill). Besides, the “WCR (50 ppm) rating” value in assay [5] was 8 (8 = 86-99% kill).
Regarding `C=CC(/C(F)=C(\F)Cc1cccc(Oc2ccccc2)c1)c1ccc(Cl)cc1` (centres unmarked) [Compound 3, 1-[(2E)-4-(4-chlorophenyl)-2,3-difluoro-2,5-hexadienyl]-3-phenoxybenzene], the “SAW (100 ppm) rating” value in assay [1] is on record as 9 (9 = 100% kill). Also, in assay [2], the “TSM (100 ppm) rating” value was 0. In assay [3], the “TBW (100 ppm) rating” value is 9 (9 = 100% kill). Moreover, in assay [4], the “BA (100 ppm) rating” value is recorded as 9 (9 = 100% kill). In assay [5], the “WCR (50 ppm) rating” value is 9 (9 = 100% kill).
As to `C=CCC(/C(F)=C(\F)Cc1cccc(Oc2ccccc2)c1)c1ccc(Cl)cc1` (centres unmarked) [Compound 2, 1[(2E)-4-(4-chlorophenyl)-2,3-difluoro-2,6-heptadienyl]-3-phenoxybenzene], the “SAW (100 ppm) rating” value in assay [1] was 9 (9 = 100% kill). Moreover, the “TSM (100 ppm) rating” value in assay [2] came out at 0. For the same molecule, the “TBW (100 ppm) rating” value in assay [3] is given as 9 (9 = 100% kill). In addition, the “BA (100 ppm) rating” value in assay [4] was 9 (9 = 100% kill). Besides, the “WCR (50 ppm) rating” value in assay [5] is 9 (9 = 100% kill).

These data come from patent US6506800B2, “1,4 diaryl-2,3-difluoro-2-butene insecticidal and acaricidal agents” (BASF Aktiengesellschaft, priority 2000, dated 2003).
